Data taken from patent publication US20100120839A1, “PYRAZOLES USEFUL IN THE TREATMENT OF INFLAMMATION” (Biolipox AB, priority 2007, published 2010).

Target: T1, purified human 15-lipoxygenase (Homo sapiens, UniProt P16050)
T1 sequence (P16050 1-662): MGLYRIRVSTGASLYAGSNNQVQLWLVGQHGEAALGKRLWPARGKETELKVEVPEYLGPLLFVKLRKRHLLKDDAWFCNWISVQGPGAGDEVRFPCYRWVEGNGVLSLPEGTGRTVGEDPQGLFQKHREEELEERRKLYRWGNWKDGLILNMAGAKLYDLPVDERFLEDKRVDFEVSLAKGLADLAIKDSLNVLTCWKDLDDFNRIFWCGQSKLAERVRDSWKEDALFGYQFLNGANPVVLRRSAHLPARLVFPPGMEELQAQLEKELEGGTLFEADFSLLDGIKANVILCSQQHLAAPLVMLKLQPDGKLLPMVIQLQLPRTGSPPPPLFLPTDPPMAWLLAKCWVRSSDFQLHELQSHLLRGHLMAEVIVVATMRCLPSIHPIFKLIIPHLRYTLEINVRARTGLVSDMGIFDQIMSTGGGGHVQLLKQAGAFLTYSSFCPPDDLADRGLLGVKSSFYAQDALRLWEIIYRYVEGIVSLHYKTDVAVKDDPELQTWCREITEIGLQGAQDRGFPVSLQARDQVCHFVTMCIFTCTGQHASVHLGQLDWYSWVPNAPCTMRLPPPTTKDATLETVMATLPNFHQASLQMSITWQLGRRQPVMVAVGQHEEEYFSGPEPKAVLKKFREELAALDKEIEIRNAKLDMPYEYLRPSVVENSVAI
Test: 15-lipoxygenase inhibition assay (arachidonic acid oxidation, reverse phase HPLC readout)
Format: biochemical
Settings: not given
Procedure: The assay employed takes advantage of the ability of lipoxygenases to oxidize polyunsaturated fatty acids, containing a 1,4-cis-pentadiene configuration, to their corresponding hydroperoxy or hydroxyl derivatives. In this particular assay, the lipoxygenase was a purified human 15-lipoxygenase and the fatty acid was arachidonic acid. The assay is performed at room temperature (20-22° C.) and the following are added to each well in a 96-well microtiter plate:
a) 35 μL phosphate buffered saline (PBS) (pH 7.4); b) inhibitor (i.e. compound) or vehicle (0.5 μl DMSO); c) 10 μL of a 10× concentrated solution of 15-lipoxygenase in PBS. […] The plate is then incubated for 10 minutes at room temperature; e) the enzymatic reaction is terminated by the addition of 100 μl methanol; and f) the amount of 15-hydroperoxy-eicosatetraenoic acid or 15-hydroxy-eicosatetraenoic acid is measured by reverse phase HPLC.

`c1ccc2oc(-c3cc[nH]n3)nc2c1` [Example 1, 2-(Pyrazol-3-yl)-benzoxazole] was tested. Which IC50 did it give?
The IC50 was 224 nM.

Same assay, conditions: arachidonic acid substrate, room temperature (20-22° C.), PBS pH 7.4; read-out: IC50

With `Clc1cc(-c2nc3ccccc3o2)n[nH]1` [Example 11, 2-(5-Chloropyrazol-3-yl)benzoxazole] as the compound, how does the IC50 read?
The IC50 was 33 nM.

Which IC50 does the source give for `Fc1cccc2nc(-c3cc(Cl)[nH]n3)oc12` [Example 15, 2-(5-Chloropyrazol-3-yl)-7-fluorobenzoxazole] here?
The IC50 was 41 nM.

For `Fc1cccc2oc(-c3cc(Cl)[nH]n3)nc12` [Example 17, 2-(5-Chloropyrazol-3-yl)-4-fluorobenzoxazole], which IC50 is on record?
The IC50 was 49 nM.

`Fc1cccc2oc(-c3n[nH]c(Cl)c3Cl)nc12` [Example 18, 2-(4,5-Dichloropyrazol-3-yl)-4-fluorobenzoxazole] was tested. Which IC50 did it give?
Its IC50 is 35 nM.

Which IC50 does the source give for `Clc1[nH]nc(-c2nc3cccnc3o2)c1Cl` [Example 32, 2-(4,5-Dichloropyrazol-3-yl)oxazolo[5,4-b]pyridine] here?
The IC50 was 127 nM.

With `FC(F)(F)c1cnc2oc(-c3n[nH]c(Cl)c3Cl)nc2c1` [Example 33, 2-(4,5-Dichloropyrazol-3-yl)-6-(trifluoromethyl)-oxazolo[5,4-b]pyridine] as the compound, how does the IC50 read?
Its IC50 is 85 nM.
